“And” between values parts separate entries of the source, which are not always exact repeats. Identical values can stand only once. Like-named read-outs stand apart in the source and are kept apart here.
How the values were obtained:
[1] = Plasma drug concentrations (pyrimethamine UPLC-MS/MS, VPA assay, unbound dolutegravir) in trial participants; assay type: in vivo, human; conditions: for Drug detectable in plasma: day 42 (28 days after end of treatment); for concentration at 6 h / concentration at 14 day: human, plasma, oral; for concentration at 14 day: day 14; for PLWH with VPA plasma levels exceeding the therapeutic window (up to 100 mg/liter): day 7
Method: Self-reported adherence was assessed at each study visit, and empty pill strips were collected after the 2-week intervention phase. […] A gradient (0.3 ml/min) with two eluents was used (A: 2 mM ammonium acetate + 0.1% formic acid in water; B: 2 mM ammonium acetate + 0.1% formic acid in methanol). […] For measurement validation, we performed linearity, correctness, LOD and lower LOQ, repeatability, reproducibility, measurement uncertainty, robustness, and carryover. […] Unbound dolutegravir plasma concentrations were quantified with a validated UPLC-MS/MS bioquantification method as previously described ([61]).

[2] = test system: BAF complex; assay: BAF complex target gene expression (IL-10, SOCS3, CBX7; control B-ACT) by RT-qPCR in participants; assay type: in vivo, human
Description: We reasoned that the effect on the expression of these gene targets at later time points (days 14 and 42) would be less useful as specific biomarker of BAF complex inhibition due to treatment interruptions and potential induction via other pathways. […] These findings are consistent with, and might be the consequence of, the generally lower plasma pyrimethamine Ctrough in participants that received the combined intervention regimen compared to those that received solely pyrimethamine.
RT-qPCR reactions were conducted using GoTaq qPCR Master Mix (Promega) following the manufacturer’s protocol. The following thermal cycling protocol was used for amplification: 3 min at 95°C, followed by 40 cycles of 95°C for 10 s and 60°C for 30 s. Expression data were calculated using the 2^−∆∆Ct methodology ([73]). Cyclophilin A was used as a housekeeping gene for the analysis. The list of primers is available in table S9.

[3] = Clinical safety: adverse events (CTCAE version 4.0) and treatment adjustments; assay type: in vivo, human; conditions: for Participants who stopped treatment: 14-day intervention, seven participants per arm
Method: Hematological parameters and kidney and liver function were monitored before treatment and on days 7, 14, and 42. At each study visit, participants were clinically assessed by the study physician and safety assessments were performed. All participant-reported AE and SAE were evaluated in relation to VPA and pyrimethamine. Severity was graded according to the Common Terminology Criteria for Adverse Events (CTCAE) version 4.0. In the study protocol, a number of stopping rules were defined including a prespecified interim analysis after the inclusion of 14 participants focusing on the number of participants discontinuing study medication during the intervention phase, CD4^+ T cell count <200 cells/μl, possibly drug-related SAE/AE ≥ grade 4, or AIDS-related illness (Centers for Disease Control category C events).

[4] = test system: HIV-1; conditions: for Plasma HIV-1 RNA in the participants not remaining below LOQ: entire 6-week trial period, two on VPA, one on pyrimethamine, one on combination; for Plasma HIV-1 RNA, Day 0, 6hr / Plasma HIV-1 RNA, Day 1 / Plasma HIV-1 RNA, Day 7 / Plasma HIV-1 RNA, Day 10 / Plasma HIV-1 RNA, Day 14 / Plasma HIV-1 RNA, Day 15 / Plasma HIV-1 RNA, Day 21 / Plasma HIV-1 RNA, Day 42 / Plasma HIV-1 RNA, Day 28 / Plasma HIV-1 RNA, Day 0, 0hr: individual participants, one value each, /N; for Plasma HIV-1 RNA, Day 0, 6hr / Plasma HIV-1 RNA, Day 1 / Plasma HIV-1 RNA, Day 7 / Plasma HIV-1 RNA, Day 10 / Plasma HIV-1 RNA, Day 14 / Plasma HIV-1 RNA, Day 15 / Plasma HIV-1 RNA, Day 21 / Plasma HIV-1 RNA, Day 42 / Plasma HIV-1 RNA, Day 28: /P suffix not kept; for Plasma HIV-1 RNA, Day 0, 0hr: pretreatment, /P suffix (genome not detected / detected below quantitation) not kept
Description: To achieve a constant and the earliest Tmax possible, participants received their first dose of the intervention regimen on day 0 in a fasted state. On day 0, cART and study medication intake were taken under direct supervision of the study staff. The 2-week intervention phase was followed by a 4-week post-intervention phase. Overall, participation involved 11 study visits. To obtain an additional post-intervention phase measurement for the inducible HIV-1 reservoir size, the study was amended and participants were asked to give written consent to an extra blood draw after the 4-week post-intervention phase ended. Plasma HIV-1 RNA levels (COBAS TaqMan; Roche, Basel, Switzerland; LOQ, 20 copies/ml) were monitored at all 11 visits. CD4^+ T cell counts were determined at screening, at the start and end of the intervention phase (days 0 and 14), at day 42, and at the post-intervention phase (≥day 42).

[5] = day 0, 6 hours after first dose relative to pretreatment, arm median
[6] = individual participants, one value each, listed as PYR

With CCc1nc(N)nc(N)c1-c1ccc(Cl)cc1 [pyrimethamine] the “Median plasma concentration of pyrimethamine with CYP3A inducers” value ([1]; PLWH on efavirenz- or nevirapine-containing cART) was “did not have lower”, the “Drug detectable in plasma” value [1] was “No pyrimethamine or VPA was detectable” and the concentration at 6 h ([1]; 200 mg, Median plasma total pyrimethamine concentration, 6 hours after first dose (200 mg), pyrimethamine alone, seven participants) was 1630 ng/mL. The concentration at 6 h ([1]; 200 mg, Median pyrimethamine Ctrough by integrase inhibitor exposure, 6 hours, group printed first of 'versus' pair) was 1300 ng/mL, the concentration at 6 h ([1]; 200 mg, Median pyrimethamine Ctrough by integrase inhibitor exposure, 6 hours, group printed second of 'versus' pair) was 1400 ng/mL and the concentration at 6 h ([1]; Median plasma total pyrimethamine concentration, 6 hours after first dose, combination arm with VPA) was 1160 ng/mL. For the same compound, the concentration at 14 day ([1]; Median pyrimethamine Ctrough by integrase inhibitor exposure, uninterrupted pyrimethamine, group printed first) was 2800 ng/mL, the concentration at 14 day ([1]; Median pyrimethamine Ctrough by integrase inhibitor exposure, uninterrupted pyrimethamine, group printed second) was 3200 ng/mL and the concentration at 14 day ([1]; Median pyrimethamine Ctrough, combination arm with VPA, four PLWH with uninterrupted exposure) was 1990 ng/mL. For the same compound, the concentration at 14 day ([1]; Median pyrimethamine Ctrough, monotherapy arm, six PLWH with uninterrupted exposure) was 3480 ng/mL, the concentration at 14 day ([1]; Pyrimethamine plasma level, individual, LUNA-21 (combination arm), stopped treatment at day 10) was 2520 ng/mL and the “Fold-induction in B-ACTIN gene expression at Day 0, 6 hours relative to Day 0, pretreatment” value ([2]; control gene, individual participants, one value each, listed as PYR) was 1.29 and 1.51 and 0.82 and 0.94 (2×) and 0.86 and 1.04. The “Median fold increase in CBX7 gene expression” value [2, 5] was 1.68 fold, the “Median fold increase in IL-10 gene expression” value [2, 5] was 2.55 fold and the “Median fold increase in SOCS3 gene expression” value [2, 5] was 2.53 fold. The “Fold-induction in CBX7 gene expression at Day 0, 6 hours relative to Day 0, pretreatment” value [2, 6] was 1.68 and 1.12 and 12.42 and 4.23 and 2.02 and 1.25 and 1.03, the “Fold-induction in IL-10 gene expression at Day 0, 6 hours relative to Day 0, pretreatment” value [2, 6] was 2.24 and 2.74 and 1.48 and 1.74 and 6.66 and 6.4 and 2.54 and the “Fold-induction in SOCS3 gene expression at Day 0, 6 hours relative to Day 0, pretreatment” value [2, 6] was 2.52 and 2.27 and 0.60 and 4.59 and 5.35 and 1.14 and 3.27. The “Adverse events experienced on pyrimethamine (monotherapy and combination arms) of all AEs” value ([3]; 6-week study duration) was 84 of 103, the “Grade 3 adverse events (number)” value ([3]; 6-week study duration) was “two” and the “Participants who stopped treatment” value [3] was “one”. For the same compound, the “Induction of plasma viremia” value ([4]; day 1 time point) was “no evidence that pyrimethamine induced plasma viremia”, the “Proportion of samples with plasma HIV-1 RNA above the assay detection limit” value ([4]; during the study at the fixed measurements, those with pyrimethamine exposure) was 22.2% and the “Plasma HIV-1 RNA in the participants not remaining below LOQ” value [4] was < 50 copies/ml. For the same compound, the “Plasma HIV-1 RNA, Day 0, 6hr” value [4] was < 20, the “Plasma HIV-1 RNA, Day 1” value [4] was < 20 and the “Plasma HIV-1 RNA, Day 7” value [4] was < 20. The “Plasma HIV-1 RNA, Day 10” value [4] was < 20, the “Plasma HIV-1 RNA, Day 14” value [4] was < 20 and the “Plasma HIV-1 RNA, Day 15” value [4] was < 20. The “Plasma HIV-1 RNA, Day 21” value [4] was < 20, the “Plasma HIV-1 RNA, Day 42” value [4] was < 20 and the “Plasma HIV-1 RNA, Day 28” value ([4]; listed as PYR) was < 20 (6×) and 20. The “Plasma HIV-1 RNA, Day 0, 0hr” value [4] was < 20.

For CCCC(CCC)C(=O)O [valproic acid], the “PLWH with VPA plasma levels exceeding the therapeutic window (up to 100 mg/liter)” value ([1]; those who continued VPA) was “three of nine”, the “PLWH with VPA plasma levels exceeding the therapeutic window (up to 100 mg/liter)” value ([1]; those whose therapy was adjusted for toxicity while receiving VPA) was “three of the five” and the “Drug detectable in plasma” value [1] was “No pyrimethamine or VPA was detectable”. It also gave a concentration at 6 h ([1]; 30 mg/kg per day (divided into two equal doses), 6 hours, VPA monotherapy, read-out: Median plasma total VPA concentration) of 47300 ng/mL, a concentration at 14 day ([1]; 30 mg/kg per day, VPA monotherapy, six PLWH with uninterrupted exposure, read-out: Median VPA Ctrough) of 84800 ng/mL and a concentration at 6 h ([1]; 6 hours, combination treatment with pyrimethamine, read-out: Median plasma total VPA concentration) of 47400 ng/mL. The concentration at 14 day ([1]; combination treatment, four PLWH with uninterrupted exposure, read-out: Median VPA Ctrough) was 113000 ng/mL, the “mRNA levels of BAF target genes (IL-10, SOCS3, CBX7)” value ([2]; day 0, 6 hours after first dose relative to pretreatment) was “no increase” and the “Participants who stopped treatment” value [3] was “one”. The “Plasma HIV-1 RNA in the participants not remaining below LOQ” value [4] was < 50 copies/ml, the “Plasma HIV-1 RNA, Day 0, 6hr” value [4] was < 20 and the “Plasma HIV-1 RNA, Day 7” value [4] was < 20. For the same compound, the “Plasma HIV-1 RNA, Day 10” value [4] was < 20, the “Plasma HIV-1 RNA, Day 14” value [4] was < 20 and the “Plasma HIV-1 RNA, Day 15” value [4] was < 20. The “Plasma HIV-1 RNA, Day 28” value [4] was < 20, the “Plasma HIV-1 RNA, Day 42” value [4] was < 20 and the “Plasma HIV-1 RNA, Day 1” value ([4]; listed as VPA) was < 20 (6×) and 41. For the same compound, the “Plasma HIV-1 RNA, Day 21” value ([4]; listed as VPA) was < 20 (6×) and 21 and the “Plasma HIV-1 RNA, Day 0, 0hr” value [4] was < 20.

Source: publication PMC10017042 (Science Advances, 2023)
